Measurements reported in patent publication US20230105212A1, “BIPHENYL DERIVATIVE INHIBITOR, PREPARATION METHOD THEREFOR AND USE THEREOF” (SHANGHAI HANSOH BIOMEDICAL CO., LTD., priority 2020, published 2023).
Read-outs that look alike come from different tables or passages of the source.

Tests used:
human PD-1/PD-L1 binding = molecular target: T1, human PD-1/PD-L1 binding (Homo sapiens, UniProt Q9NZQ7); assay: Inhibition of human PD-1/PD-L1 binding (TR-FRET/HTRF); conditions: TR-FRET, PD-L1-His and PD-1-Fc; read-out: PD-1/PD-L1 binding IC50
T1 construct: PD-L1-His protein (19 to 238 amino acids) (Abcam #ab167713); purchased Abcam (PD-L1-His); R&D (PD-1-Fc) ab167713; 1086-PD
In short: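 PD-L1-His (aa 19–238, diluted to 10 nM) and PD-1-Fc (aa 25–167, diluted to 20 nM) incubated with compounds (10 μM or 1 μM top, 3-fold, 11 doses) 60 min at room temperature, then anti-6HIS Eu cryptate/anti-human IgG-XL665 added for 3 h RT or overnight 4 °C. HTRF 665/620 nm ratio gave inhibition and IC50.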

[1] = molecular target: T2, PD-L1 protein on the surface of MC38-hPDL1 tumor cells (Homo sapiens, UniProt Q9NZQ7); assay: Induction of endocytosis of PD-L1 on the surface of tumor cells (flow cytometry); format: cell-based; conditions: 16 hours incubation; for Emax: MC38-hPDL1 cells, read-out: MC38 maximum endocytosis rate; for IC50: inducing endocytosis of PD-L1, MC38-hPDL1 cells, read-out: MC38 IC50
T2 construct: expressed in transfected cells; host or cells: MC38-hPDL1 (mouse colon cancer cells)
In short: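 IC50 comes from nonlinear fits of endocytosis rate, calculated from the loss of surface PE-anti-CD274 flow signal relative to vehicle. Cells were MC38 mouse colon cancer cells engineered to express high human PD-L1. Compound exposure lasted 16 h at 37 °C, 5% CO2.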

human PD-L1 protein = molecular target: T3, human PD-L1 protein (Homo sapiens, UniProt Q9NZQ7); assay: Thermal shift: melting temperature of PD-L1 protein; format: binding; conditions: for ΔTm at 10 µM: read-out: ΔTm (° C.)
T3 construct: purchased Acro Biosystems PD1-H5229
Procedure: Test Embodiment 4. Test of Combination of the Compounds of the Present Disclosure to Improve the Stability (Melting Temperature) of PD-L1 Protein Experimental purpose: To test the ability of compounds to enhance the stability of PD-L1 protein and increase the melting temperature of the protein. Experimental method: […] A solution containing […] HEPES, SYPRO Orange, and 150 mM NaCl was prepared as experimental buffer, and human PD-L1 protein was added at a final concentration of 2 μM. […] PCR tube was put into the PCR machine, and the melt curve function was selected to detect the melting temperature of PD-L1 protein in different treatment groups (heated from 25° C. to 95° C., 0.03° C./s). The experimental data file of the PCR instrument was imported into the thermal shift software to obtain the melting temperature (Tm) of each treatment group, and the Tm of the DMSO vehicle control group was subtracted to obtain the change value (ΔTm) of the melting temperature, as shown in the following table: […]

[2] = compound 10 μM, PD-L1 protein 2 μM, Tm minus DMSO vehicle control

T3 sequence (Q9NZQ7 19-238 limits assumed): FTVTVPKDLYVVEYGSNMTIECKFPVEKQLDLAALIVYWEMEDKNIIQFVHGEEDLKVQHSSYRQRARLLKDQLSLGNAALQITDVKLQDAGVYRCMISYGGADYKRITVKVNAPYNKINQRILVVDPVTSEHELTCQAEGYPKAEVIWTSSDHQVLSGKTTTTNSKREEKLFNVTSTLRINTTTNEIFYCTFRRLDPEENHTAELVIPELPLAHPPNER
T2 sequence (Q9NZQ7 19-290): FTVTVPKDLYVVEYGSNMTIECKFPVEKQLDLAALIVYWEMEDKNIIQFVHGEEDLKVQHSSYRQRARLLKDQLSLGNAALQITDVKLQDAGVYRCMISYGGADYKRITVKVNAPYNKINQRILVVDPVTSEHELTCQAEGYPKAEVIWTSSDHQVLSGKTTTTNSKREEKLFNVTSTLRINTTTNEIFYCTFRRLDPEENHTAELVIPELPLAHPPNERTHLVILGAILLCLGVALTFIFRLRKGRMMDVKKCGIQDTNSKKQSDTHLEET
T1 sequence (Q9NZQ7 19-238): as the sequence (Q9NZQ7 19-238 limits assumed) above

Compound	IC50 (human PD-1/PD-L1 binding) [nM]	Emax [1] [%]	IC50 [1] [nM]	ΔTm at 10 µM (human PD-L1 protein; [2]) [°C]	ΔTm (° C.) (human PD-L1 protein; [2]) [°C]	ΔTm at 10 µM (human PD-L1 protein) [°C]
COc1nc(-c2cccc(-c3cccc(NC(=O)c4nc5c(n4C)CCN(C)C5)c3Cl)c2Cl)ccc1CN1CC(OC(C)=O)C1 [Embodiment 122, 1-((6-(2,2′-Dichloro-3′-(1,5-dimethyl-4,5,6,7-tetrahydro-1H-imidazo[4,5-c]pyridine-2-carboxamido)-[1,1′-biphenyl]-3-yl)-2-methoxypyridin-3-yl)methyl)azetidin-3-yl acetate]	3.5	97	0.4	14.8		
COc1nc(-c2cccc(-c3cccc(NC(=O)c4nc5c(n4C)CCN(C)C5)c3Cl)c2Cl)ccc1CN1CCN(C(C)=O)CC1 [Embodiment 203, N-(3′-(5-((4-Acetylpiperazin-1-yl)methyl)-6-methoxypyridin-2-yl)-2,2′-dichloro-[1,1′-biphenyl]-3-yl)-1,5-dimethyl-4,5,6,7-tetrahydro-1H-imidazo[4,5-c]pyridine-2-carboxamide]		95		13.5	10.5	
COc1nc(-c2cccc(-c3cccc(NC(=O)c4nc5c(n4C)CCN(C)C5)c3Cl)c2Cl)ccc1CN1CC(CC#N)C1 [Embodiment 182, N-(2,2′-Dichloro-3′-(5-((3-(cyanomethyl)azetidin-1-yl)methyl)-6-methoxypyridin-2-yl)-[1,1′-biphenyl]-3-yl)-1,5-dimethyl-4,5,6,7-tetrahydro-1H-imidazo[4,5-c]pyridine-2-carboxamide]		97		16.3		
COc1cc(C(=O)Nc2cccc(-c3cccc(NC(=O)c4nc5c(n4C)CCN(C)C5)c3Cl)c2C)ncc1CN[C@@H]1CONC1=O [Embodiment 96, (R)—N-(2-Chloro-3′-(4-methoxy-5-(((3-carbonylisoxazolidin-4-yl)amino)methyl)picolinamido)-2′-methyl-[1,1′-biphenyl]-3-yl)-1,5-dimethyl-4,5,6,7-tetrahydro-1H-imidazo[4,5-c]pyridine-2-carboxamide]	2.3			10.5		
CCn1c(C(=O)Nc2cccc(-c3cccc(-c4ccc(CNC5COC5)c(OC)n4)c3Cl)c2Cl)nc2c1CCN(C)C2 [Embodiment 236, N-(2,2′-Dichloro-3′-(6-methoxy-5-((oxetan-3-ylamino)methyl)pyridin-2-yl)-[1,1′-biphenyl]-3-yl)-1-ethyl-5-methyl-4,5,6,7-tetrahydro-1H-imidazo[4,5-c]pyridine-2-carboxamide]		90		10.6		
COc1nc(-c2cccc(-c3cccc(NC(=O)c4nc5c(n4C)CCN(C)C5)c3Cl)c2Cl)ccc1CN1CC2(C1)CN(C(=O)C1CC1)C2 [Embodiment 187, N-(2,2′-Dichloro-3′-(5-((6-(cyclopropylcarbonyl)-2,6-diazaspiro[3.3]heptan-2-yl)methyl)-6-methoxypyridin-2-yl)-[1,1′-biphenyl]-3-yl)-1,5-dimethyl-4,5,6,7-tetrahydro-1H-imidazo[4,5-c]pyridine-2-carboxamide]		95	1.1	21.1		
COc1nc(-c2cccc(-c3cccc(NC(=O)c4nc5c(n4C)CCN(C)C5)c3Cl)c2Cl)ccc1CN1CCN(C(=O)C(C)C)CC1 [Embodiment 199, N-(2,2′-Dichloro-3′-(5-((4-isobutyrylpiperazin-1-yl)methyl)-6-methoxypyridin-2-yl)-[1,1′-biphenyl]-3-yl)-1,5-dimethyl-4,5,6,7-tetrahydro-1H-imidazo[4,5-c]pyridine-2-carboxamide]		93		11.4		
COc1nc(-c2cccc(-c3cccc(NC(=O)c4nc5c(n4C)CCN(C)C5)c3Cl)c2Cl)ccc1CN1CCC(C)(C#N)CC1 [Embodiment 212, N-(2,2′-Dichloro-3′-(5-((4-cyano-4-methylpiperidin-1-yl)methyl)-6-methoxypyridin-2-yl)-[1,1′-biphenyl]-3-yl)-1,5-dimethyl-4,5,6,7-tetrahydro-1H-imidazo[4,5-c]pyridine-2-carboxamide]		94	11.6	14.9		
COc1nc(-c2cccc(-c3cccc(NC(=O)c4nc5c(n4C)CCN(C)C5)c3Cl)c2Cl)ccc1CN1CC2CC(C1)N2C(C)=O [Embodiment 206, N-(3′-(5-((6-Acetyl-3,6-diazabicyclo[3.1.1]heptan-3-yl)methyl)-6-methoxypyridin-2-yl)-2,2′-dichloro-[1,1′-biphenyl]-3-yl)-1,5-dimethyl-4,5,6,7-tetrahydro-1H-imidazo[4,5-c]pyridine-2-carboxamide]		90		11.6		
COc1nc(-c2cccc(-c3cccc(NC(=O)c4nc5c(n4C)CCN(C)C5)c3Cl)c2Cl)ccc1CN1CC2(CCN(C(=O)C(C)C)C2)C1 [Embodiment 196, N-(2,2′-Dichloro-3′-(5-((6-isobutyryl-2,6-diazaspiro[3.4]octan-2-yl)methyl)-6-methoxypyridin-2-yl)-[1,1′-biphenyl]-3-yl)-1,5-dimethyl-4,5,6,7-tetrahydro-1H-imidazo[4,5-c]pyridine-2-carboxamide]		96		12.4		
COc1cc(C(=O)Nc2cccc(-c3cccc(NC(=O)c4nc5c(n4C)CCN(C)C5)c3Cl)c2C)ncc1CNc1ccc(C)nc1 [Embodiment 92, N-(2-Chloro-3′-(4-methoxy-5-(((6-methylpyridin-3-yl)amino)methyl)picolinamido)-2′-methyl-[1,1′-biphenyl]-3-yl)-1,5-dimethyl-4,5,6,7-tetrahydro-1H-imidazo[4,5-c]pyridine-2-carboxamide]		83	9	10.5		
COc1nc(-c2cccc(-c3cccc(NC(=O)c4nc5c(n4C)CCN(C)C5)c3Cl)c2Cl)ccc1CN[C@@H]1CCOC[C@@H]1F [Embodiment 115, N-(2,2′-Dichloro-3′-(5-((((3R,4R)-3-fluorotetrahydro-2H-pyran-4-yl)amino)methyl)-6-methoxypyridin-2-yl)-[1,1′-biphenyl]-3-yl)-1,5-dimethyl-4,5,6,7-tetrahydro-1H-imidazo[4,5-c]pyridine-2-carboxamide]		93	5.3			12.7
COc1nc(-c2cccc(-c3cccc(NC(=O)c4nc5c(n4C)CCN(C)C5)c3Cl)c2Cl)ccc1CN1CC2(C1)CN(C(=O)C(F)(F)F)C2 [Embodiment 189, N-(2,2′-Dichloro-3′-(6-methoxy-5-((6-(2,2,2-trifluoroacetyl)-2,6-diazaspiro[3.3]heptan-2-yl)methyl)pyridin-2-yl)-[1,1′-biphenyl]-3-yl)-1,5-dimethyl-4,5,6,7-tetrahydro-1H-imidazo[4,5-c]pyridine-2-carboxamide]		96		19.5		
CCC(=O)N1CCN(Cc2ccc(-c3cccc(-c4cccc(NC(=O)c5nc6c(n5C)CCN(C)C6)c4Cl)c3Cl)nc2OC)CC1 [Embodiment 201, N-(2,2′-Dichloro-3′-(6-methoxy-5-((4-propionylpiperazin-1-yl)methyl)pyridin-2-yl)-[1,1′-biphenyl]-3-yl)-1,5-dimethyl-4,5,6,7-tetrahydro-1H-imidazo[4,5-c]pyridine-2-carboxamide]		94		12.1		
COc1nc(-c2cccc(-c3cccc(NC(=O)c4nc5c(n4C)CCN(C)C5)c3Cl)c2Cl)ccc1CNCC1(C#N)CC1 [Embodiment 213, N-(2,2′-Dichloro-3′-(5-((((1-cyanocyclopropyl)methyl)amino)methyl)-6-methoxypyridin-2-yl)-[1,1′-biphenyl]-3-yl)-1,5-dimethyl-4,5,6,7-tetrahydro-1H-imidazo[4,5-c]pyridine-2-carboxamide]		96	4.1	14.5		
COc1nc(-c2cccc(-c3cccc(NC(=O)c4nc5c(n4C4CC4)CCN(C)C5)c3Cl)c2Cl)ccc1CN[C@H]1CCOC[C@@H]1O (relative stereo) [Embodiment 244, 1-Cyclopropyl-N-(2,2′-dichloro-3′-(5-(((trans-3-hydroxytetrahydro-2H-pyran-4-yl)amino)methyl)-6-methoxypyridin-2-yl)-[1,1′-biphenyl]-3-yl)-5-methyl-4,5,6,7-tetrahydro-1H-imidazo[4,5-c]pyridine-2-carboxamide]		94		11.4		
